Some results are limits rather than exact numbers.

The target of this assay is Nanoluciferase-BRD9 fusion protein (Homo sapiens (Human), UniProt Q9H8M2). Description: SYO1 BRD9 NanoLuc degradation assay. The assay is classed as cell-based. The conditions noted are these: Table 5B; SYO-1 cells expressing 3×FLAG-NLuc-BRD9, 6 hours; read-out: SYO1 BRD9-NanoLuc degradation IC50. Summed up: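 Degradation was read as loss of nanoluciferase signal (Nano-Glo) after 6 h compound exposure in a stable SYO-1 line carrying 3×FLAG-NLuc-BRD9 (8000 cells/well). Normalised between DMSO (high) and a 1 μM known BRD9 degrader (low).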
Sequence of Nanoluciferase-BRD9 fusion protein (Q9H8M2 whole entry, the tested form may be a part): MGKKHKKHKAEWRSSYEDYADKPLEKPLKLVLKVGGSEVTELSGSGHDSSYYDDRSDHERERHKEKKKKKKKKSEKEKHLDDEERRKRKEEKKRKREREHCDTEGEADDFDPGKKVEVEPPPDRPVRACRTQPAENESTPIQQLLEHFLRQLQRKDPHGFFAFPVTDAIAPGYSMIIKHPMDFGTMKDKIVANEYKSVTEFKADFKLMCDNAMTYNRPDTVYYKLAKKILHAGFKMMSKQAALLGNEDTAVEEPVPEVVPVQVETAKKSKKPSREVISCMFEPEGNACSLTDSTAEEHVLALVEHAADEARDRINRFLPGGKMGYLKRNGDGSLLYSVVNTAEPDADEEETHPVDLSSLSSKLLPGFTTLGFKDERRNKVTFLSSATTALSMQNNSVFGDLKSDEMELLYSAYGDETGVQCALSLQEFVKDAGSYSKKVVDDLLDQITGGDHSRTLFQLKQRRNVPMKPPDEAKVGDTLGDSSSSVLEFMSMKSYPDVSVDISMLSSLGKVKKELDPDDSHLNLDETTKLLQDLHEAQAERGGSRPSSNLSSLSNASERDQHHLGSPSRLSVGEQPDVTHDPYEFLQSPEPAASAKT
Regarding `COc1cc(-c2cn(C)c(=O)c3cnccc23)cc(OC)c1CN1CC(CC(=O)N[C@@H]2C[C@@]23CCN(c2ccc4c(c2)C(=O)N(C2CCC(=O)NC2=O)C4=O)C3)C1` (stereo partly shown) [Compound D232], the DC50 lay within 10 to 100 nM.
Regarding `COc1cc(-c2cn(C)c(=O)c3cnccc23)cc(OC)c1CN1CC(CC(=O)N2CC(Oc3ccc4c(c3)C(=O)N(C3CCC(=O)NC3=O)C4=O)C2)C1` (stereo not shown) [Compound D233], the DC50 is 100 to 1000 nM.
Turning to `COc1cc(-c2cn(C)c(=O)c3cnccc23)cc(OC)c1CN1CC(CC(=O)N2CC3(CC(Oc4ccc5c(c4)C(=O)N(C4CCC(=O)NC4=O)C5=O)C3)C2)C1` (stereo not shown) [Compound D234], the DC50 lay in the range of 10 to 100 nM.
Regarding `COc1cc(-c2cn(C)c(=O)c3cnccc23)cc(OC)c1CN1CCC2(CC1)CN(CC#Cc1ccc3c(c1)C(=O)N(C1CCC(=O)NC1=O)C3=O)C2` (stereo not shown) [Compound D235], the DC50 is less than 10 nM.
For the compound `COc1cc(-c2cn(C)c(=O)c3cnccc23)cc(OC)c1CN1CCC2C(C1)CN2CC#Cc1ccc2c(c1)C(=O)N(C1CCC(=O)NC1=O)C2=O` (stereo not shown) [Compound D236], the DC50 was less than 10 nM.
As to `COc1cc(-c2cn(C)c(=O)c3cnccc23)cc(OC)c1CN1CCN(CC#Cc2ccc3c(c2)C(=O)N(C2CCC(=O)NC2=O)C3=O)CC1` (stereo not shown) [Compound D237], the DC50 was less than 10 nM.
As for `COc1cc(-c2cn(C)c(=O)c3cnccc23)cc(OC)c1CN1CCC2(C1)CN(CCCC#Cc1ccc3c(c1)C(=O)N(C1CCC(=O)NC1=O)C3=O)C2` (stereo not shown) [Compound D238], the DC50 is less than 10 nM.
Consider `COc1cc(-c2cn(C)c(=O)c3cnccc23)cc(OC)c1CN1CC2(CCN(C(=O)C#Cc3ccc4c(c3)C(=O)N(C3CCC(=O)NC3=O)C4=O)C2)C1` (stereo not shown) [Compound D239], for which the DC50 was less than 10 nM.
On to `COc1cc(-c2cn(C)c(=O)c3cnccc23)cc(OC)c1CN1CCC2(CC1)CCN(C(=O)C#Cc1ccc3c(c1)C(=O)N(C1CCC(=O)NC1=O)C3=O)C2` (stereo not shown) [Compound D240], for which the DC50 is less than 10 nM.
Take `COc1cc(-c2cn(C)c(=O)c3cnccc23)cc(OC)c1CN1CCC2(C1)CN(C(=O)C#Cc1ccc3c(c1)C(=O)N(C1CCC(=O)NC1=O)C3=O)C2` (stereo not shown) [Compound D241]: the DC50 is less than 10 nM.
As for `COc1cc(-c2cn(C)c(=O)c3cnccc23)cc(OC)c1CN1CCC2C(C1)CN2C(=O)C#Cc1ccc2c(c1)C(=O)N(C1CCC(=O)NC1=O)C2=O` (stereo not shown) [Compound D242], the DC50 was less than 10 nM.
In the case of `COc1cc(-c2cn(C)c(=O)c3cnccc23)cc(OC)c1CN1CCC2C(C1)CN2C(=O)CCC#Cc1ccc2c(c1)C(=O)N(C1CCC(=O)NC1=O)C2=O` (stereo not shown) [Compound D243] it was less than 10 nM; in that of `COc1cc(-c2cn(C)c(=O)c3cnccc23)cc(OC)c1CN(C)CCCCN1CCCC2(CC(Oc3ccc4c(c3)C(=O)N([C@@H]3CCC(=O)NC3=O)C4=O)C2)C1` (stereo partly shown) [Compound D244], less than 10 nM; in that of `COc1cc(-c2cn(C)c(=O)c3cnccc23)cc(OC)c1CN(C)CCCCNC1CCC12CN(c1ccc3c(c1)C(=O)N(C1CCC(=O)NC1=O)C3=O)C2` (stereo not shown) [Compound D245], 10 to 100 nM.
The value for `COc1cc(-c2cn(C)c(=O)c3cnccc23)cc(OC)c1CN(C)CCCCN1CCCC2(CC(Oc3ccc4c(c3)C(=O)N([C@H]3CCC(=O)NC3=O)C4=O)C2)C1` (stereo partly shown) [Compound D246] was less than 10 nM.
As to `COc1cc(-c2cn(C)c(=O)c3cnccc23)cc(OC)c1CN(C)CCCCNC1CC2(CCN(c3ccc4c(c3)C(=O)N(C3CCC(=O)NC3=O)C4=O)CC2)C1` (stereo not shown) [Compound D247], the DC50 is less than 10 nM.
In the case of `COc1cc(-c2cn(C)c(=O)c3cnccc23)cc(OC)c1CN(C)CCCCN1CC(Oc2ccc3c(c2)C(=O)N(C2CCC(=O)NC2=O)C3=O)C1` (stereo not shown) [Compound D249] it was 10 to 100 nM.
`COc1cc(-c2cn(C)c(=O)c3cnccc23)cc(OC)c1CN(C)CCCCNC1CC2(C1)CN(c1ccc3c(c1)C(=O)N(C1CCC(=O)NC1=O)C3=O)C2` (stereo not shown) [Compound D250]: the DC50 is less than 10 nM.
The value for `COc1cc(-c2cn(C)c(=O)c3cnccc23)cc(OC)c1CN(C)CCCCN1CC2(CC(Oc3ccc4c(c3)C(=O)N(C3CCC(=O)NC3=O)C4=O)C2)C1` (stereo not shown) [Compound D251] was less than 10 nM; that for `COc1cc(-c2cn(C)c(=O)c3cnccc23)cc(OC)c1CN(C)CCCCNC1CC12CCN(c1ccc3c(c1)C(=O)N(C1CCC(=O)NC1=O)C3=O)C2` (stereo not shown) [Compound D252] was less than 10 nM; that for `COc1cc(-c2cn(C)c(=O)c3cnccc23)cc(OC)c1CN(C)CCCCN1CCC2(CC(Oc3ccc4c(c3)C(=O)N(C3CCC(=O)NC3=O)C4=O)C2)C1` (stereo not shown) [Compound D253] was less than 10 nM.
Regarding `COc1cc(-c2cn(C)c(=O)c3cnccc23)cc(OC)c1CN(C)CCCCN1CC2(C1)CN(c1ccc3c(c1)C(=O)N(C1CCC(=O)NC1=O)C3=O)C2` (stereo not shown) [Compound D254], the DC50 was less than 10 nM.
The value for `COc1cc(-c2cn(C)c(=O)c3cnccc23)cc(OC)c1CN(C)C(=O)CCCCNC1CCC12CN(c1ccc3c(c1)C(=O)N(C1CCC(=O)NC1=O)C3=O)C2` (stereo not shown) [Compound D255] was less than 10 nM; that for `COc1cc(-c2cn(C)c(=O)c3cnccc23)cc(OC)c1CN(C)C(=O)CCCCNC1CC2(CCN(c3ccc4c(c3)C(=O)N(C3CCC(=O)NC3=O)C4=O)CC2)C1` (stereo not shown) [Compound D256] was less than 10 nM.
In the case of `COc1cc(-c2cn(C)c(=O)c3cnccc23)cc(OC)c1CN(C)CCCCNC1CC2(C1)CC(Oc1ccc3c(c1)C(=O)N(C1CCC(=O)NC1=O)C3=O)C2` (stereo not shown) [Compound D257] it was less than 10 nM; in that of `COc1cc(-c2cn(C)c(=O)c3cnccc23)cc(OC)c1CN(C)C(=O)CCCCNC1CC12CCN(c1ccc3c(c1)C(=O)N(C1CCC(=O)NC1=O)C3=O)C2` (stereo not shown) [Compound D258], less than 10 nM; in that of `COc1cc(-c2cn(C)c(=O)c3cnccc23)cc(OC)c1CN(C)CCCCN1CC2(CCC(Oc3ccc4c(c3)C(=O)N(C3CCC(=O)NC3=O)C4=O)C2)C1` (stereo not shown) [Compound D259], less than 10 nM.
Take `COc1cc(-c2cn(C)c(=O)c3cnccc23)cc(OC)c1CN(C)C(=O)CCCCNC1CC2(C1)CC(Oc1ccc3c(c1)C(=O)N(C1CCC(=O)NC1=O)C3=O)C2` (stereo not shown) [Compound D260]: the DC50 is less than 10 nM.
The value for `COc1cc(-c2cn(C)c(=O)c3cnccc23)cc(OC)c1CN(C)C(=O)CCCCN1CCCC2(CC(Oc3ccc4c(c3)C(=O)N([C@@H]3CCC(=O)NC3=O)C4=O)C2)C1` (stereo partly shown) [Compound D261] was less than 10 nM.
Regarding `COc1cc(-c2cn(C)c(=O)c3cnccc23)cc(OC)c1CN(C)C(=O)CCCCN1CCCC2(CC(Oc3ccc4c(c3)C(=O)N([C@H]3CCC(=O)NC3=O)C4=O)C2)C1` (stereo partly shown) [Compound D262], the DC50 was less than 10 nM.
Regarding `COc1cc(-c2cn(C)c(=O)c3cnccc23)cc(OC)c1CN(C)C(=O)CCCCN1CCC2(CC(Oc3ccc4c(c3)C(=O)N(C3CCC(=O)NC3=O)C4=O)C2)C1` (stereo not shown) [Compound D263], the DC50 is less than 10 nM.
In the case of `COc1cc(-c2cn(C)c(=O)c3cnccc23)cc(OC)c1CN1CC(CC(=O)N2CCCC3(CC(Oc4ccc5c(c4)C(=O)N([C@@H]4CCC(=O)NC4=O)C5=O)C3)C2)C1` (stereo partly shown) [Compound D264] it was 10 to 100 nM; in that of `COc1cc(-c2cn(C)c(=O)c3cnccc23)cc(OC)c1CN1CC(CC(=O)N2CCCC3(CC(Oc4ccc5c(c4)C(=O)N([C@H]4CCC(=O)NC4=O)C5=O)C3)C2)C1` (stereo partly shown) [Compound D265], 100 to 1000 nM.
`COc1cc(-c2cn(C)c(=O)c3cnccc23)cc(OC)c1CN1CC(CC(=O)N2CCC3(CC(Oc4ccc5c(c4)C(=O)N([C@@H]4CCC(=O)NC4=O)C5=O)C3)C2)C1` (stereo partly shown) [Compound D266]: the DC50 was 10 to 100 nM.
As for `COc1cc(-c2cn(C)c(=O)c3cnccc23)cc(OC)c1CN1CC(CC(=O)N2CCC3(CC(Oc4ccc5c(c4)C(=O)N([C@H]4CCC(=O)NC4=O)C5=O)C3)C2)C1` (stereo partly shown) [Compound D267], the DC50 was in the range of 10 to 100 nM.
In the case of `COc1cc(-c2cn(C)c(=O)c3cnccc23)cc(OC)c1CN1CCC2(C1)CN(CC#Cc1ccc3c(c1)C(=O)N(C1CCC(=O)NC1=O)C3=O)C2` (stereo not shown) [Compound D268] it was less than 10 nM; in that of `COc1cc(-c2cn(C)c(=O)c3cnccc23)cc(OC)c1CN1CCC2(C1)CN(C(=O)CCC#Cc1ccc3c(c1)C(=O)N(C1CCC(=O)NC1=O)C3=O)C2` (stereo not shown) [Compound D269], less than 10 nM.
With `COc1cc(-c2cn(C)c(=O)c3cnccc23)cc(OC)c1Cn1cc(CN2CC(Oc3ccc4c(c3)C(=O)N(C3CCC(=O)NC3=O)C4=O)C2)nn1` (stereo not shown) [Compound D270], the DC50 is 10 to 100 nM.
In the case of `COc1cc(-c2cn(C)c(=O)c3cnccc23)cc(OC)c1Cn1cc(COC2CN(c3ccc4c(c3)C(=O)N(C3CCC(=O)NC3=O)C4=O)C2)nn1` (stereo not shown) [Compound D271] it was less than 10 nM; in that of `COc1cc(-c2cn(C)c(=O)c3cnccc23)cc(OC)c1Cn1cc(COC2CCN(c3ccc4c(c3)C(=O)N(C3CCC(=O)NC3=O)C4=O)CC2)nn1` (stereo not shown) [Compound D272], less than 10 nM.
As to `COc1cc(-c2cn(C)c(=O)c3cnccc23)cc(OC)c1CN(C)CCn1cc(CCOc2ccc3c(c2)C(=O)N(C2CCC(=O)NC2=O)C3=O)nn1` (stereo not shown) [Compound D274], the DC50 is less than 10 nM.
As for `COc1cc(-c2cn(C)c(=O)c3cnccc23)cc(OC)c1CN(C)CCn1cc(COCCOc2ccc3c(c2)C(=O)N(C2CCC(=O)NC2=O)C3=O)nn1` (stereo not shown) [Compound D275], the DC50 is less than 10 nM.
In the case of `COc1cc(-c2cn(C)c(=O)c3cnccc23)cc(OC)c1CN(C)CCn1cc(CN2CC(Oc3ccc4c(c3)C(=O)N(C3CCC(=O)NC3=O)C4=O)C2)nn1` (stereo not shown) [Compound D276] it was 10 to 100 nM; in that of `COc1cc(-c2cn(C)c(=O)c3cnccc23)cc(OC)c1CN(C)CCn1cc(COC2CN(c3ccc4c(c3)C(=O)N(C3CCC(=O)NC3=O)C4=O)C2)nn1` (stereo not shown) [Compound D277], less than 10 nM; in that of `COc1cc(-c2cn(C)c(=O)c3cnccc23)cc(OC)c1CN(C)CCn1cc(COC2CCN(c3ccc4c(c3)C(=O)N(C3CCC(=O)NC3=O)C4=O)CC2)nn1` (stereo not shown) [Compound D278], 10 to 100 nM.
The value for `COc1cc(-c2cn(C)c(=O)c3cnccc23)cc(OC)c1CN1CCC(n2cc(CCOc3ccc4c(c3)C(=O)N(C3CCC(=O)NC3=O)C4=O)nn2)CC1` (stereo not shown) [Compound D279] was less than 10 nM.

(Values after patent publication US11414416B1, “Compounds and uses thereof” (Foghorn Therapeutics Inc., priority 2019, dated 2022).)
